{"source": "patent US20100260755A1", "about": "“IBUDILAST AND IMMUNOMODULATORS COMBINATION” (MediciNova, Inc., priority 2009, published 2010)", "origin": "cited, not measured here", "key": {"[1]": {"system": "experimental autoimmune encephalomyelitis", "settings": "in vivo"}, "[2]": {"system": "multiple sclerosis patients", "settings": "daily injections, exacerbating-remitting MS"}, "[3]": {"system": "glial cells"}, "[4]": {"system": "T-cells isolated from peripheral blood of MS patients", "settings": "in vitro"}}}
{"substance": "Glatiramer acetate", "values": [{"measurement": "effect on experimental autoimmune encephalomyelitis (EAE)", "setting": "[1]", "value": "suppress"}, {"measurement": "exacerbations versus control patients", "setting": "[2]", "value": "fewer exacerbations"}, {"measurement": "increases in disability status versus control patients", "setting": "[2]", "value": "smaller increases"}, {"measurement": "production of inflammatory mediators TNF-α, nitric oxide, superoxide by glial cells", "setting": "[3]", "value": "effectively suppress"}, {"measurement": "IL-5 and IL-13 cytokine secretion", "setting": "[4]", "value": "induces"}]}
